Results on ten compounds are retold here after ChEMBL document CHEMBL1909046, “DrugMatrix in vitro pharmacology data”.

Sequence of 5-hydroxytryptamine receptor 4 (O70528 whole entry): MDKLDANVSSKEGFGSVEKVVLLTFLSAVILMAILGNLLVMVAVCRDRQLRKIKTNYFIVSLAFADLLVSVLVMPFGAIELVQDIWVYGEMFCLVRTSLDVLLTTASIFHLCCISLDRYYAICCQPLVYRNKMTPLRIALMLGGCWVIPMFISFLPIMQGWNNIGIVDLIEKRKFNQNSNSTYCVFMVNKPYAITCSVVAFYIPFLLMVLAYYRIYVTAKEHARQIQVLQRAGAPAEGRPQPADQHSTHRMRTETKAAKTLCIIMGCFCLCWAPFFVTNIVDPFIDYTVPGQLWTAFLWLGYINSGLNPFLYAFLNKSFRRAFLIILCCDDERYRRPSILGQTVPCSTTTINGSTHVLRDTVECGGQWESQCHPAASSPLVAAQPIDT

One assay has as its target 5-hydroxytryptamine receptor 4 (Cavia porcellus, UniProt O70528). In kind it is cell membranes, Dunkin-Hartley, Striatum, Membrane. Further: in other assays of this panel Not Active means under 50% inhibition at 10 µM.
Conditions: not given
In the case of `CC(C)(S)[C@@H](N)C(=O)O` [PENICILLAMINE], the IC50 result is recorded as “Not Active”.
On to `O=C(O)c1cn(C2CC2)c2cc(N3CCNCC3)c(F)cc2c1=O` [CIPROFLOXACIN], for which the IC50 entry is reported as “Not Active”.
In the case of `C/C=C1\[C@H]2C=C(C)C[C@]1(N)c1ccc(=O)[nH]c1C2` [HUPERZINE A], the IC50 result is listed as “Not Active”.
Consider `CC1COc2c(N3CCN(C)CC3)c(F)cc3c(=O)c(C(=O)O)cn1c23` (stereo not given) [OFLOXACIN], for which the IC50 result is “Not Active”.
`C[C@]12CCC(=O)C=C1CC[C@@H]1[C@@H]2C(=O)C[C@@]2(C)[C@H]1CC[C@]2(O)C(=O)CO` [CORTISONE]: the IC50 entry is recorded as “Not Active”.
As for `O=C1OCCN1/N=C/c1ccc([N+](=O)[O-])o1` [FURAZOLIDONE], the IC50 entry is reported as “Not Active”.
For the compound `CCCc1cc(=O)[nH]c(=S)[nH]1` [PROPYLTHIOURACIL], the IC50 entry was “Not Active”.
On the same count and under the same terms, the same measure for `NS(=O)(=O)c1cc2c(cc1Cl)NCNS2(=O)=O` [HYDROCHLOROTHIAZIDE]: “Not Active”.
The same measure, in the same setting: the result for `Oc1cccc2cccnc12` [OXYQUINOLINE] reads “Not Active”; that for `CN(C)CCCC1(c2ccc(F)cc2)OCc2cc(C#N)ccc21` (stereo not given) [CITALOPRAM], “Not Active”.

System in another assay: not listed separately
Description: DRUGMATRIX: Tumor Necrosis Factor (TNF), Non-Selective radioligand binding (ligand: [125I] TNF-alpha). It is filed as cell membranes, Membrane. The conditions noted are these: u-937; Not Active = under 50% inhibition at 10 µM.
Consider `CC(C)(S)[C@@H](N)C(=O)O` [PENICILLAMINE], for which the IC50 result is on record as “Not Active” and the Ki entry is given as “Not Active”.
Turning to `O=C(O)c1cn(C2CC2)c2cc(N3CCNCC3)c(F)cc2c1=O` [CIPROFLOXACIN], the IC50 result was “Not Active” and the Ki result is “Not Active”.
With `C/C=C1\[C@H]2C=C(C)C[C@]1(N)c1ccc(=O)[nH]c1C2` [HUPERZINE A], the IC50 result is “Not Active” and the Ki result is on record as “Not Active”.
Consider `CC1COc2c(N3CCN(C)CC3)c(F)cc3c(=O)c(C(=O)O)cn1c23` (stereo not given) [OFLOXACIN], for which the IC50 result is on record as “Not Active” and the Ki entry is “Not Active”.
With `C[C@]12CCC(=O)C=C1CC[C@@H]1[C@@H]2C(=O)C[C@@]2(C)[C@H]1CC[C@]2(O)C(=O)CO` [CORTISONE], the IC50 result is reported as “Not Active” and the Ki result is listed as “Not Active”.
`O=C1OCCN1/N=C/c1ccc([N+](=O)[O-])o1` [FURAZOLIDONE]: the IC50 result is listed as “Not Active” and the Ki result is on record as “Not Active”.
As for `CCCc1cc(=O)[nH]c(=S)[nH]1` [PROPYLTHIOURACIL], the IC50 entry was “Not Active” and the Ki result is on record as “Not Active”.
Turning to `NS(=O)(=O)c1cc2c(cc1Cl)NCNS2(=O)=O` [HYDROCHLOROTHIAZIDE], the IC50 entry was “Not Active” and the Ki entry is recorded as “Not Active”.
Regarding `Oc1cccc2cccnc12` [OXYQUINOLINE], the IC50 result was “Not Active” and the Ki entry was “Not Active”.
For the compound `CN(C)CCCC1(c2ccc(F)cc2)OCc2cc(C#N)ccc21` (stereo not given) [CITALOPRAM], the IC50 entry was “Not Active” and the Ki result was “Not Active”.

System in the next assay: not listed separately
Description: DRUGMATRIX: Imidazoline I2, Central radioligand binding (ligand: [3H] Idazoxan). In kind it is cell membranes, Rattus norvegicus, Wistar, Cerebral cortex, Membrane. Particulars: Not Active = under 50% inhibition at 10 µM.
For `CC(C)(S)[C@@H](N)C(=O)O` [PENICILLAMINE], the IC50 entry is on record as “Not Active” and the Ki entry is “Not Active”.
Regarding `O=C(O)c1cn(C2CC2)c2cc(N3CCNCC3)c(F)cc2c1=O` [CIPROFLOXACIN], the IC50 entry is listed as “Not Active” and the Ki entry is “Not Active”.
Turning to `C/C=C1\[C@H]2C=C(C)C[C@]1(N)c1ccc(=O)[nH]c1C2` [HUPERZINE A], the IC50 result is recorded as “Not Active” and the Ki result was “Not Active”.
With `CC1COc2c(N3CCN(C)CC3)c(F)cc3c(=O)c(C(=O)O)cn1c23` (stereo not given) [OFLOXACIN], the IC50 entry is recorded as “Not Active” and the Ki entry is on record as “Not Active”.
With `C[C@]12CCC(=O)C=C1CC[C@@H]1[C@@H]2C(=O)C[C@@]2(C)[C@H]1CC[C@]2(O)C(=O)CO` [CORTISONE], the IC50 entry is given as “Not Active” and the Ki result was “Not Active”.
Turning to `O=C1OCCN1/N=C/c1ccc([N+](=O)[O-])o1` [FURAZOLIDONE], the IC50 result is “Not Active” and the Ki result is given as “Not Active”.
As to `CCCc1cc(=O)[nH]c(=S)[nH]1` [PROPYLTHIOURACIL], the IC50 result was “Not Active” and the Ki result was “Not Active”.
As for `NS(=O)(=O)c1cc2c(cc1Cl)NCNS2(=O)=O` [HYDROCHLOROTHIAZIDE], the IC50 result was “Not Active” and the Ki entry was “Not Active”.
Consider `Oc1cccc2cccnc12` [OXYQUINOLINE], for which the IC50 result is recorded as “Not Active” and the Ki result is listed as “Not Active”.
As for `CN(C)CCCC1(c2ccc(F)cc2)OCc2cc(C#N)ccc21` (stereo not given) [CITALOPRAM], the IC50 entry was “Not Active” and the Ki entry is “Not Active”.

For a further assay, the target named is T1, Amine oxidase [flavin-containing] A (Homo sapiens, UniProt P21397).
T1 sequence (P21397 whole entry): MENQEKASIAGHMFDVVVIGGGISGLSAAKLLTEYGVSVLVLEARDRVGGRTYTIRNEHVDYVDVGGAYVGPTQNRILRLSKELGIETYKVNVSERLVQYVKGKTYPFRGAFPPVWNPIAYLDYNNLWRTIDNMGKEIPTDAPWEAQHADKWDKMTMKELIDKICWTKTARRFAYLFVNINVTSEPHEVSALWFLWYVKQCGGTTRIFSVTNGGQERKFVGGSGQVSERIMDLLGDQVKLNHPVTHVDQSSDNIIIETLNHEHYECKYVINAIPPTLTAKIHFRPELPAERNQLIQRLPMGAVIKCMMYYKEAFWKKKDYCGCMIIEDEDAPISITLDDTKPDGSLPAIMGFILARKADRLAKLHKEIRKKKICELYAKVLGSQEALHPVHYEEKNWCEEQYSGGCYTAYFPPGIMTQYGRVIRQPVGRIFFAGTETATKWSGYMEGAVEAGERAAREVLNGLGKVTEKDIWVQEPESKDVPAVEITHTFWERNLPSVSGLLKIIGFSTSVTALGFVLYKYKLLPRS
As to the kind of experiment: DRUGMATRIX: Monoamine Oxidase MAO-A enzyme inhibition (substrate: Kynuramine). Also noted: species or system BTI-TN-5B1-4. The conditions noted are these: bti-tn-5b1-4; Not Active = under 50% inhibition at 10 µM.
On to `CC(C)(S)[C@@H](N)C(=O)O` [PENICILLAMINE], for which the IC50 result is recorded as “Not Active”.
As to `O=C(O)c1cn(C2CC2)c2cc(N3CCNCC3)c(F)cc2c1=O` [CIPROFLOXACIN], the IC50 entry is listed as “Not Active”.
For the compound `C/C=C1\[C@H]2C=C(C)C[C@]1(N)c1ccc(=O)[nH]c1C2` [HUPERZINE A], the IC50 entry is reported as “Not Active”.
Turning to `CC1COc2c(N3CCN(C)CC3)c(F)cc3c(=O)c(C(=O)O)cn1c23` (stereo not given) [OFLOXACIN], the IC50 result is given as “Not Active”.
For `C[C@]12CCC(=O)C=C1CC[C@@H]1[C@@H]2C(=O)C[C@@]2(C)[C@H]1CC[C@]2(O)C(=O)CO` [CORTISONE], the IC50 result is “Not Active”.
Regarding `O=C1OCCN1/N=C/c1ccc([N+](=O)[O-])o1` [FURAZOLIDONE], the IC50 result is “Not Active”.
For the compound `CCCc1cc(=O)[nH]c(=S)[nH]1` [PROPYLTHIOURACIL], the IC50 entry was “Not Active”.
For `NS(=O)(=O)c1cc2c(cc1Cl)NCNS2(=O)=O` [HYDROCHLOROTHIAZIDE], the IC50 entry was “Not Active”.
With `Oc1cccc2cccnc12` [OXYQUINOLINE], the IC50 result is reported as “Not Active”.
For the compound `CN(C)CCCC1(c2ccc(F)cc2)OCc2cc(C#N)ccc21` (stereo not given) [CITALOPRAM], the IC50 result is reported as “Not Active”.
